From paper PMC7686313, “Phase 1 study of mTORC1/2 inhibitor sapanisertib (TAK-228) in advanced solid tumours, with an expansion phase in renal, endometrial or bladder cancer” (British Journal of Cancer, 2020)

Assay: Safety (adverse events, NCI CTCAE v4.0), dose-escalation phase
[1] = dose-escalation QD × 5dQW 7–13 mg
[2] = dose-escalation Total (n = 116)

Procedure: Patients who received ≥1 dose of sapanisertib were included in the safety population. […] Adverse events (AEs) were assessed using the National Cancer Institute Common Terminology Criteria for Adverse Events, v4.0. Patients were provided with a home blood-glucose meter to monitor their fasting predose blood-glucose measurements to assess hyperglycaemia as an on-target AE and PD marker.

SMILES: CC(C)n1nc(-c2ccc3oc(N)nc3c2)c2c(N)ncnc21 [Sapanisertib]
- Fatigue, treatment-related grade ≥3 AE [1]: 2 (9) n (%)
- Headache, treatment-related AE [1]: 1 (5) n (%)
- Hypercholesterolemia, treatment-related AE [1]: 1 (5) n (%)
- Hyperglycaemia, treatment-related AE [1]: 11 (50) n (%)
- Hyperglycaemia, treatment-related grade ≥3 AE [1]: 1 (5) n (%)
- Hypophosphatemia, treatment-related AE [1]: 2 (9) n (%)
- Hypophosphatemia, treatment-related grade ≥3 AE [1]: 0 (0) n (%)
- Lymphopenia, treatment-related grade ≥3 AE [1]: 0 (0) n (%)
- Nausea, treatment-related AE [1]: 13 (59) n (%)
- Nausea, treatment-related grade ≥3 AE [1]: 1 (5) n (%)
- On-study deaths [1]: 0 n (%)
- Pruritus generalised, treatment-related AE [1]: 1 (5) n (%)
- Pruritus generalised, treatment-related grade ≥3 AE [1]: 0 (0) n (%)
- Pruritus, treatment-related AE [1]: 3 (14) n (%)
- Rash maculo-papular, treatment-related AE [1]: 2 (9) n (%)
- Rash maculo-papular, treatment-related grade ≥3 AE [1]: 1 (5) n (%)
- Rash, treatment-related AE [1]: 3 (14) n (%)
- Rash, treatment-related grade ≥3 AE [1]: 0 (0) n (%)
- Stomatitis (includes oropharyngeal pain and mucosal inflammation), treatment-related AE [1]: 13 (59) n (%)
- Stomatitis, treatment-related grade ≥3 AE [1]: 3 (14) n (%)
- Thrombocytopenia, treatment-related grade ≥3 AE [1]: 0 (0) n (%)
- Vomiting, treatment-related AE [1]: 10 (45) n (%)
- Weight decreased, treatment-related AE [1]: 2 (9) n (%)
- Acute kidney injury, treatment-related AE (dose-escalation QW 7–40 mg): 0 (0) n (%)
- Anaemia, treatment-related AE (dose-escalation QW 7–40 mg): 1 (3) n (%)
- Any AE (dose-escalation QW 7–40 mg): 30 (100) n (%)
- Any AE resulting in dose modification/interruption (dose-escalation QW 7–40 mg): 13 (43) n (%)
- Any AE resulting in treatment discontinuation (dose-escalation QW 7–40 mg): 4 (13) n (%)
- Any SAE (dose-escalation QW 7–40 mg): 10 (33) n (%)
- Any grade ≥3 AE (dose-escalation QW 7–40 mg): 18 (60) n (%)
- Any treatment-related AE (dose-escalation QW 7–40 mg): 28 (93) n (%)
- Any treatment-related SAE (dose-escalation QW 7–40 mg): 0 n (%)
- Any treatment-related grade ≥3 AE (dose-escalation QW 7–40 mg): 8 (27) n (%)
- Asthenia, treatment-related AE (dose-escalation QW 7–40 mg): 12 (40) n (%)
- Asthenia, treatment-related grade ≥3 AE (dose-escalation QW 7–40 mg): 1 (3) n (%)
- Blood creatinine increased, treatment-related AE (dose-escalation QW 7–40 mg): 3 (10) n (%)
- Decreased appetite, treatment-related AE (dose-escalation QW 7–40 mg): 8 (27) n (%)
- Dehydration, treatment-related AE (dose-escalation QW 7–40 mg): 1 (3) n (%)
- Dehydration, treatment-related grade ≥3 AE (dose-escalation QW 7–40 mg): 0 (0) n (%)
- Diarrhoea, treatment-related AE (dose-escalation QW 7–40 mg): 9 (30) n (%)
- Diarrhoea, treatment-related grade ≥3 AE (dose-escalation QW 7–40 mg): 1 (3) n (%)
- Dry mouth, treatment-related AE (dose-escalation QW 7–40 mg): 3 (10) n (%)
- Dysgeusia, treatment-related AE (dose-escalation QW 7–40 mg): 3 (10) n (%)
- Dyspepsia, treatment-related AE (dose-escalation QW 7–40 mg): 1 (3) n (%)
- Fatigue, treatment-related AE (dose-escalation QW 7–40 mg): 8 (27) n (%)
- Fatigue, treatment-related grade ≥3 AE (dose-escalation QW 7–40 mg): 2 (7) n (%)
- Headache, treatment-related AE (dose-escalation QW 7–40 mg): 2 (7) n (%)
- Hypercholesterolemia, treatment-related AE (dose-escalation QW 7–40 mg): 1 (3) n (%)
- Hyperglycaemia, treatment-related AE (dose-escalation QW 7–40 mg): 17 (57) n (%)
- Hyperglycaemia, treatment-related grade ≥3 AE (dose-escalation QW 7–40 mg): 2 (7) n (%)
- Hypophosphatemia, treatment-related AE (dose-escalation QW 7–40 mg): 0 (0) n (%)
- Hypophosphatemia, treatment-related grade ≥3 AE (dose-escalation QW 7–40 mg): 0 (0) n (%)
- Lymphopenia, treatment-related grade ≥3 AE (dose-escalation QW 7–40 mg): 1 (3) n (%)
- Nausea, treatment-related AE (dose-escalation QW 7–40 mg): 22 (73) n (%)
- Nausea, treatment-related grade ≥3 AE (dose-escalation QW 7–40 mg): 0 (0) n (%)
- On-study deaths (dose-escalation QW 7–40 mg): 1 (3) n (%)
- Pruritus generalised, treatment-related AE (dose-escalation QW 7–40 mg): 0 (0) n (%)
- Pruritus generalised, treatment-related grade ≥3 AE (dose-escalation QW 7–40 mg): 0 (0) n (%)
- Pruritus, treatment-related AE (dose-escalation QW 7–40 mg): 2 (7) n (%)
- Rash maculo-papular, treatment-related AE (dose-escalation QW 7–40 mg): 0 (0) n (%)
- Rash maculo-papular, treatment-related grade ≥3 AE (dose-escalation QW 7–40 mg): 0 (0) n (%)
- Rash, treatment-related AE (dose-escalation QW 7–40 mg): 2 (7) n (%)
- Rash, treatment-related grade ≥3 AE (dose-escalation QW 7–40 mg): 0 (0) n (%)
- Stomatitis (includes oropharyngeal pain and mucosal inflammation), treatment-related AE (dose-escalation QW 7–40 mg): 9 (30) n (%)
- Stomatitis, treatment-related grade ≥3 AE (dose-escalation QW 7–40 mg): 0 (0) n (%)
- Thrombocytopenia, treatment-related grade ≥3 AE (dose-escalation QW 7–40 mg): 0 (0) n (%)
- Vomiting, treatment-related AE (dose-escalation QW 7–40 mg): 17 (57) n (%)
- Weight decreased, treatment-related AE (dose-escalation QW 7–40 mg): 2 (7) n (%)
- Acute kidney injury, treatment-related AE [2]: 1 (1) n (%)
- Anaemia, treatment-related AE [2]: 5 (4) n (%)
- Any AE [2]: 116 (100) n (%)
- Any AE resulting in dose modification/interruption [2]: 68 (59) n (%)
- Any AE resulting in treatment discontinuation [2]: 28 (24) n (%)
- Any SAE [2]: 50 (43) n (%)
- Any grade ≥3 AE [2]: 76 (66) n (%)
- Any treatment-related AE [2]: 112 (97) n (%)
- Any treatment-related SAE [2]: 17 (15) n (%)
- Any treatment-related grade ≥3 AE [2]: 49 (42) n (%)
- Asthenia, treatment-related AE [2]: 37 (32) n (%)
- Asthenia, treatment-related grade ≥3 AE [2]: 9 (8) n (%)
- Blood creatinine increased, treatment-related AE [2]: 12 (10) n (%)
- Decreased appetite, treatment-related AE [2]: 43 (37) n (%)
- Dehydration, treatment-related AE [2]: 5 (4) n (%)
- Dehydration, treatment-related grade ≥3 AE [2]: 1 (1) n (%)
- Diarrhoea, treatment-related AE [2]: 41 (35) n (%)
- Diarrhoea, treatment-related grade ≥3 AE [2]: 2 (2) n (%)
- Dry mouth, treatment-related AE [2]: 12 (10) n (%)
- Dysgeusia, treatment-related AE [2]: 19 (16) n (%)
- Dyspepsia, treatment-related AE [2]: 3 (3) n (%)
- Fatigue, treatment-related AE [2]: 35 (30) n (%)
- Fatigue, treatment-related grade ≥3 AE [2]: 4 (3) n (%)
- Headache, treatment-related AE [2]: 6 (5) n (%)
- Hypercholesterolemia, treatment-related AE [2]: 11 (9) n (%)
- Hyperglycaemia, treatment-related AE [2]: 75 (65) n (%)
- Hyperglycaemia, treatment-related grade ≥3 AE [2]: 16 (14) n (%)
- Hypophosphatemia, treatment-related AE [2]: 7 (6) n (%)
- Hypophosphatemia, treatment-related grade ≥3 AE [2]: 3 (3) n (%)
- Lymphopenia, treatment-related grade ≥3 AE [2]: 5 (4) n (%)
- Nausea, treatment-related AE [2]: 71 (61) n (%)
- Nausea, treatment-related grade ≥3 AE [2]: 3 (3) n (%)
- On-study deaths [2]: 4 (3) n (%)
- Pruritus generalised, treatment-related AE [2]: 15 (13) n (%)
- Pruritus generalised, treatment-related grade ≥3 AE [2]: 3 (3) n (%)
- Pruritus, treatment-related AE [2]: 8 (7) n (%)
- Rash maculo-papular, treatment-related AE [2]: 6 (5) n (%)
- Rash maculo-papular, treatment-related grade ≥3 AE [2]: 3 (3) n (%)
- Rash, treatment-related AE [2]: 20 (17) n (%)
- Rash, treatment-related grade ≥3 AE [2]: 2 (2) n (%)
- Stomatitis (includes oropharyngeal pain and mucosal inflammation), treatment-related AE [2]: 56 (48) n (%)
- Stomatitis, treatment-related grade ≥3 AE [2]: 8 (7) n (%)
- Thrombocytopenia, treatment-related grade ≥3 AE [2]: 2 (2) n (%)
- Vomiting, treatment-related AE [2]: 53 (46) n (%)
- Weight decreased, treatment-related AE [2]: 7 (6) n (%)
